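A five-concentration, 48-hour dose response in 96-well plates underlies each endpoint, interpolated linearly between surrounding concentrations. GI50: concentration for 50% inhibition of growth.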 Activity calls are given as the source filed them. Rule as the data show it: active = GI50 up to about 1.1 µM and inactive = higher.
How the values were obtained:
Assay in all cases: growth of human tumour cells (NCI), 48 h
DMS-114 = system: DMS-114
KM-20L2 = system: KM-20L2
XF498 = system: XF498
DLD-1 = system: DLD-1
SNB-78 = system: SNB-78
M19-MEL = system: M19-MEL
HOP-18 = system: HOP-18
RXF 631 = system: RXF 631
LXFL 529 = system: LXFL 529

Cc1cccc(C2=C/C(=C(\SS/C(C(=O)c3ccc(OCC(=O)O)c(Cl)c3Cl)=C3\C=C(c4cccc(C)c4)SS3)C(=O)c3ccc(OCC(=O)O)c(Cl)c3Cl)SS2)c1
GI50 (DMS-114): 5.42 µM (inactive) | GI50 (KM-20L2): 47.1 µM (inactive) | GI50 (XF498): 7.98 µM (inactive) | GI50 (DLD-1): 27.4 µM (inactive) | GI50 (SNB-78): 15.6 µM (inactive) | GI50 (M19-MEL): 19.1 µM (inactive) | GI50 (HOP-18): 12.8 µM (inactive)

Cc1ccc(NC(=O)C2C3CCC(O3)C2C(=O)O)cc1 (configuration not stated)
GI50 (DMS-114): 33.3 µM (inactive) | GI50 (RXF 631): 53.7 µM (inactive) | GI50 (KM-20L2): > 26.6 µM (inactive) | GI50 (XF498): 22.6 µM (inactive) | GI50 (DLD-1): > 54.1 µM (inactive) | GI50 (SNB-78): > 86.7 µM (inactive) | GI50 (M19-MEL): > 61.2 µM (inactive) | GI50 (LXFL 529): > 46.2 µM (inactive) | GI50 (HOP-18): > 86.3 µM (inactive)

Cn1c(=O)c2c3ccccc3c(C(=O)c3ccccc3)n2c2ccccc21
GI50 (DMS-114): 3.67 µM (inactive) | GI50 (KM-20L2): 3.8 µM (inactive) | GI50 (XF498): > 50.9 µM (inactive) | GI50 (DLD-1): 8.24 µM (inactive) | GI50 (SNB-78): 63.2 µM (inactive) | GI50 (M19-MEL): 3.68 µM (inactive) | GI50 (LXFL 529): > 24.5 µM (inactive) | GI50 (HOP-18): 18.7 µM (inactive)

Cc1cc2c(=O)cc(-c3ccncc3)oc2c(C(=O)O)c1C
GI50 (RXF 631): > 100 µM (inactive) | GI50 (KM-20L2): > 100 µM (inactive) | GI50 (XF498): > 100 µM (inactive) | GI50 (SNB-78): > 100 µM (inactive) | GI50 (M19-MEL): > 100 µM (inactive) | GI50 (LXFL 529): > 100 µM (inactive) | GI50 (HOP-18): > 100 µM (inactive)

O=C(Nc1cccc(Cl)c1)c1cc2cc(/N=N/c3ccc(Br)cc3)ccc2oc1=O
GI50 (DMS-114): 18.4 µM (inactive) | GI50 (RXF 631): 68.1 µM (inactive) | GI50 (KM-20L2): 45.1 µM (inactive) | GI50 (XF498): 46.8 µM (inactive) | GI50 (DLD-1): 40 µM (inactive) | GI50 (SNB-78): 52.8 µM (inactive) | GI50 (M19-MEL): > 10 µM (inactive) | GI50 (LXFL 529): 14.1 µM (inactive) | GI50 (HOP-18): 63.2 µM (inactive)

C[Si]12OCCCN(CCO1)CCO2
GI50 (DMS-114): > 100 µM (inactive) | GI50 (DLD-1): > 100 µM (inactive) | GI50 (SNB-78): > 100 µM (inactive) | GI50 (M19-MEL): > 100 µM (inactive) | GI50 (LXFL 529): > 100 µM (inactive)

CSC(=N)N1N=C2c3ccccc3CC[C@@H]2[C@@H]1c1ccccc1
GI50 (DMS-114): 13.3 µM (inactive) | GI50 (KM-20L2): 12 µM (inactive) | GI50 (XF498): 16.7 µM (inactive) | GI50 (DLD-1): 12.9 µM (inactive) | GI50 (M19-MEL): 15.9 µM (inactive) | GI50 (LXFL 529): 11.5 µM (inactive) | GI50 (HOP-18): 18.5 µM (inactive)

Cc1cccc(C(C)C)c1NC(=O)CCl
GI50 (DMS-114): 20.8 µM (inactive) | GI50 (KM-20L2): 45.4 µM (inactive) | GI50 (DLD-1): 65 µM (inactive) | GI50 (SNB-78): 48.9 µM (inactive) | GI50 (M19-MEL): 51.6 µM (inactive) | GI50 (LXFL 529): 76.7 µM (inactive) | GI50 (HOP-18): 53.7 µM (inactive)

Cc1ccc(NC(=O)CC(=O)n2nc(-c3ccccc3)c(/N=N/c3ccc(Cl)cc3)c2-c2ccccc2)cc1
GI50 (DMS-114): 39.6 µM (inactive) | GI50 (RXF 631): > 100 µM (inactive) | GI50 (KM-20L2): 49.9 µM (inactive) | GI50 (DLD-1): 15.3 µM (inactive) | GI50 (SNB-78): > 100 µM (inactive) | GI50 (M19-MEL): 22 µM (inactive) | GI50 (LXFL 529): 64.7 µM (inactive) | GI50 (HOP-18): 39 µM (inactive)

Cn1cnc([N+](=O)[O-])c1Sc1nnnn1-c1ccccc1
GI50 (DMS-114): 15.5 µM (inactive) | GI50 (RXF 631): 14.2 µM (inactive) | GI50 (XF498): 11.6 µM (inactive) | GI50 (DLD-1): 6.68 µM (inactive) | GI50 (SNB-78): 13.7 µM (inactive) | GI50 (M19-MEL): 12.1 µM (inactive) | GI50 (LXFL 529): 4.27 µM (inactive) | GI50 (HOP-18): 1.58 µM (inactive)

C=CCCCC(C#N)(c1ccccc1)N1CCCC1 (configuration not stated)
GI50 (DMS-114): > 100 µM (inactive) | GI50 (KM-20L2): > 100 µM (inactive) | GI50 (SNB-78): > 100 µM (inactive) | GI50 (M19-MEL): > 100 µM (inactive)

Cc1cccc(C)c1NC(=O)CCCC(=O)C(C#N)c1ccc(Cl)cc1 (configuration not stated)
GI50 (DMS-114): > 100 µM (inactive) | GI50 (KM-20L2): > 100 µM (inactive) | GI50 (DLD-1): > 100 µM (inactive) | GI50 (SNB-78): > 100 µM (inactive) | GI50 (M19-MEL): > 100 µM (inactive) | GI50 (LXFL 529): > 100 µM (inactive) | GI50 (HOP-18): > 100 µM (inactive)

CC(=O)N1C(=O)C(=O)c2cc(Cl)ccc21
GI50 (DMS-114): > 100 µM (inactive) | GI50 (RXF 631): > 100 µM (inactive) | GI50 (XF498): 0.234 µM (active) | GI50 (DLD-1): > 100 µM (inactive) | GI50 (SNB-78): > 100 µM (inactive) | GI50 (M19-MEL): > 100 µM (inactive) | GI50 (LXFL 529): > 100 µM (inactive) | GI50 (HOP-18): > 100 µM (inactive)

COc1c(OC)c(N)c2cc(C)c(=O)c(C)cc2c1N
GI50 (DMS-114): 50.9 µM (inactive) | GI50 (KM-20L2): > 100 µM (inactive) | GI50 (XF498): > 100 µM (inactive) | GI50 (DLD-1): 55.7 µM (inactive) | GI50 (SNB-78): > 100 µM (inactive) | GI50 (M19-MEL): > 100 µM (inactive) | GI50 (LXFL 529): 64.9 µM (inactive) | GI50 (HOP-18): > 100 µM (inactive)

COc1c(OC2OC(CO)C(O)C(O)C2O)cc2c(c1OC)-c1ccc(OC)c(=O)cc1C(NC(C)=O)CC2 (configuration not stated)
GI50 (DMS-114): 35.7 µM (inactive) | GI50 (RXF 631): > 100 µM (inactive) | GI50 (KM-20L2): > 100 µM (inactive) | GI50 (XF498): 83.6 µM (inactive) | GI50 (DLD-1): > 100 µM (inactive) | GI50 (SNB-78): > 100 µM (inactive) | GI50 (M19-MEL): > 91.2 µM (inactive) | GI50 (LXFL 529): 86.1 µM (inactive) | GI50 (HOP-18): > 100 µM (inactive)

N#CC(C#N)=C1NC(=O)CC(=O)N1
GI50 (DMS-114): > 100 µM (inactive) | GI50 (KM-20L2): > 100 µM (inactive) | GI50 (XF498): > 100 µM (inactive) | GI50 (DLD-1): > 100 µM (inactive) | GI50 (SNB-78): > 100 µM (inactive) | GI50 (M19-MEL): > 100 µM (inactive) | GI50 (LXFL 529): > 100 µM (inactive)

Cc1c(C(=O)C/C(=N/NC(=O)C[n+]2ccccc2)C(=O)Nc2ccccc2)[n+]([O-])c2ccccc2[n+]1[O-]
GI50 (DMS-114): > 100 µM (inactive) | GI50 (RXF 631): > 100 µM (inactive) | GI50 (KM-20L2): > 100 µM (inactive) | GI50 (XF498): > 100 µM (inactive) | GI50 (DLD-1): > 100 µM (inactive) | GI50 (SNB-78): > 100 µM (inactive) | GI50 (M19-MEL): > 100 µM (inactive) | GI50 (LXFL 529): > 100 µM (inactive) | GI50 (HOP-18): > 100 µM (inactive)

C#C[C@]1(O)CCCC2=CC(=O)CC[C@@]21C
GI50 (DMS-114): > 100 µM (inactive) | GI50 (KM-20L2): > 100 µM (inactive) | GI50 (DLD-1): > 100 µM (inactive) | GI50 (M19-MEL): > 100 µM (inactive) | GI50 (LXFL 529): > 100 µM (inactive) | GI50 (HOP-18): > 100 µM (inactive)

C=C1CC(CCCl)(c2ccccc2)OC1=O (configuration not stated)
GI50 (DMS-114): 37.9 µM (inactive) | GI50 (RXF 631): > 42.7 µM (inactive) | GI50 (KM-20L2): 61.8 µM (inactive) | GI50 (XF498): 41.2 µM (inactive) | GI50 (DLD-1): 20.1 µM (inactive) | GI50 (SNB-78): 42.2 µM (inactive) | GI50 (M19-MEL): 34.7 µM (inactive) | GI50 (LXFL 529): 20 µM (inactive) | GI50 (HOP-18): > 42.9 µM (inactive)

C[C@@H](CO)OCOCc1ccccc1
GI50 (DMS-114): > 100 µM (inactive) | GI50 (XF498): > 100 µM (inactive) | GI50 (DLD-1): > 100 µM (inactive) | GI50 (SNB-78): > 100 µM (inactive) | GI50 (M19-MEL): > 100 µM (inactive) | GI50 (LXFL 529): > 100 µM (inactive)

O=C(Nc1cccc(O)c1)C(=O)C(C(=O)c1ccc(Cl)c(Cl)c1)C1OC(=O)c2ccccc21 (configuration not stated)
GI50 (DMS-114): 12.1 µM (inactive) | GI50 (KM-20L2): 18.8 µM (inactive) | GI50 (XF498): 10.9 µM (inactive) | GI50 (SNB-78): 7.08 µM (inactive) | GI50 (M19-MEL): 12.4 µM (inactive) | GI50 (LXFL 529): 12.2 µM (inactive) | GI50 (HOP-18): 25.5 µM (inactive)

CSCC(COC(C)=O)(CSC)c1ccncc1
GI50 (DMS-114): > 100 µM (inactive) | GI50 (KM-20L2): > 100 µM (inactive) | GI50 (SNB-78): > 100 µM (inactive) | GI50 (M19-MEL): > 100 µM (inactive) | GI50 (LXFL 529): > 100 µM (inactive)

CCCCCC(=O)N[C@H]1CCc2cc(O)c(O)c(O)c2-c2ccc(SC)c(=O)cc21
GI50 (DMS-114): 15.5 µM (inactive) | GI50 (KM-20L2): 27.6 µM (inactive) | GI50 (DLD-1): 19.6 µM (inactive) | GI50 (SNB-78): 65.2 µM (inactive) | GI50 (M19-MEL): 19.9 µM (inactive) | GI50 (LXFL 529): 21.5 µM (inactive)

CN1CCN(CCn2c3c4ccccc4ccc3c3oc(=O)c4ccccc4c32)CC1
GI50 (DMS-114): 1.95 µM (inactive) | GI50 (RXF 631): 5.19 µM (inactive) | GI50 (KM-20L2): 2.58 µM (inactive) | GI50 (DLD-1): 2.28 µM (inactive) | GI50 (SNB-78): 11.4 µM (inactive) | GI50 (M19-MEL): 10.8 µM (inactive) | GI50 (LXFL 529): 4.06 µM (inactive) | GI50 (HOP-18): 12.6 µM (inactive)

COC(=O)C(=O)C(C(=O)C(=O)Nc1ccc([N+](=O)[O-])cc1)c1nc2ccccc2nc1O (configuration not stated)
GI50 (DMS-114): > 100 µM (inactive) | GI50 (RXF 631): > 100 µM (inactive) | GI50 (KM-20L2): 22.1 µM (inactive) | GI50 (XF498): > 100 µM (inactive) | GI50 (DLD-1): > 100 µM (inactive) | GI50 (M19-MEL): > 100 µM (inactive) | GI50 (LXFL 529): 34.2 µM (inactive) | GI50 (HOP-18): > 100 µM (inactive)

Oc1cccc2c1NC1=C(CCC/C1=C\c1ccccc1)C2
GI50 (DMS-114): 67.8 µM (inactive) | GI50 (KM-20L2): 52.6 µM (inactive) | GI50 (XF498): 57.1 µM (inactive) | GI50 (M19-MEL): 55.8 µM (inactive) | GI50 (LXFL 529): 89.5 µM (inactive)
